SMILES strings stand for the structures.

This note sets out measurements from US20090318527A1, “INDOLE COMPOUNDS AND METHODS OF USE THEREOF” (priority 2008, published 2009).

One series concerns the target T1, human 5-HT2A receptor (Homo sapiens, UniProt P28223).
T1 construct: expressed in transfected cells; host or cells: HEK 293
Kind of series: Intracellular calcium flux assay, HEK 293 cells stably expressing 5-HT2A.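 As to all read-outs here: fluorescent calcium dye read on FLIPR Tetra, peak signal above baseline within 60 s after compound addition, seven concentrations spanning 10 pM to 10 µM.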 The note with it: for Emax at 10 µM: HEK293, read-out: 5-HT2A functional activity (N/A class); for Emax at 10 µM / 5-HT2A response as percentage of the maximal 5-HT response @ 10,000: at 10,000 nM; for 5-HT2A response as percentage of the maximal 5-HT response @ 10,000: EC50 not reached; for EC50: calcium flux, at least three independent experiments, each in triplicate, read-out: 5-HT2A mean EC50 ± SD. Type of series: cell-based. In general terms: Calcium assays in cells follow changes in intracellular calcium, usually with a dye or a luminescent sensor.

The next series has as its target T2, human 5-HT2B receptor (Homo sapiens, UniProt P41595).
T2 construct: expressed in transfected cells; host or cells: HEK 293
Nature of the series: Intracellular calcium flux assay, HEK 293 cells stably expressing 5-HT2B.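 As to all read-outs here: calcium dye fluorescence read on a FLIPR Tetra, peak signal above baseline within 60 s after compound addition, seven-point concentration series from 10 pM up to 10 µM.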 Type of series: cell-based. The following applies: for Emax: HEK293, read-out: 5-HT2B efficacy as percentage of the maximal 5-HT response ± SD; for Emax / EC50: calcium flux, at least three independent experiments; for EC50: each in triplicate, read-out: 5-HT2B mean EC50 ± SD; for Emax at 10 µM: HEK293, at 10,000 nM, read-out: 5-HT2B functional activity (N/A class).

A further series has as its target T3, 5-HT2C (Homo sapiens, UniProt P28335).
T3 sequence (P28335 33-458): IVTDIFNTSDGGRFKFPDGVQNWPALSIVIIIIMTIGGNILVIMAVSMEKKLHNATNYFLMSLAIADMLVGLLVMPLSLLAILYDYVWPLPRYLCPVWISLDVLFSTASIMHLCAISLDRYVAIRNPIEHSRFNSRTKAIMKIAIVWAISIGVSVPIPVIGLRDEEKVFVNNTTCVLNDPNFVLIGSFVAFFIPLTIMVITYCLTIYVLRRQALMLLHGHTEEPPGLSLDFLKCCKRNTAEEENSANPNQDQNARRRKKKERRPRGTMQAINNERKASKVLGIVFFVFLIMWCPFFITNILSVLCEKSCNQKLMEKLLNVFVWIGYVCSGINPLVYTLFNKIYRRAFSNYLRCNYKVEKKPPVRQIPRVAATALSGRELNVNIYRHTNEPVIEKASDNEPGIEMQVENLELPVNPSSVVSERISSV
Nature of the series: Intracellular calcium flux assay, HEK 293 cells stably expressing 5-HT2C.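 As to all read-outs here: calcium dye fluorescence read on FLIPR Tetra as peak signal above baseline within 60 s of compound addition, seven concentrations from 10 pM to 10 µM, each in triplicate.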 The format is cell-based. Also on record: expressed in transfected cells; host or cells: HEK 293. The following applies: for Emax: HEK293, read-out: 5-HT2C efficacy as percentage of the maximal 5-HT response ± SD, at least three independent experiments, entries marked a (42, 50, 51, 52) single measurements; for EC50: at least three independent experiments, entries marked a (42, 50, 51, 52) single measurements, read-out: 5-HT2C mean EC50 ± SD.

T1 sequence (P28223 whole entry): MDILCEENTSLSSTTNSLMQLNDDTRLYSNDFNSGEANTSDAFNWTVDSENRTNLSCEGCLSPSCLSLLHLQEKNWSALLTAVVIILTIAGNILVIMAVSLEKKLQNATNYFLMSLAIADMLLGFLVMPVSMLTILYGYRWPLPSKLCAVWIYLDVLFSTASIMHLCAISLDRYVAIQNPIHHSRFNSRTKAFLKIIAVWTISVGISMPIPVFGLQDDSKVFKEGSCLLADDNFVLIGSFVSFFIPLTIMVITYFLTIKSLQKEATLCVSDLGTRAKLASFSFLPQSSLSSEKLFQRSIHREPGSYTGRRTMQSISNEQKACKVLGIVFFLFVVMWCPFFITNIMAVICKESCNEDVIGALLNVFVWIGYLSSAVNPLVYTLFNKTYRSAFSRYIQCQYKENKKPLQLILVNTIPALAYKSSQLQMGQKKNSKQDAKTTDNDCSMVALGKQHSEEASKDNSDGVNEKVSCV
T2 sequence (P41595 whole entry): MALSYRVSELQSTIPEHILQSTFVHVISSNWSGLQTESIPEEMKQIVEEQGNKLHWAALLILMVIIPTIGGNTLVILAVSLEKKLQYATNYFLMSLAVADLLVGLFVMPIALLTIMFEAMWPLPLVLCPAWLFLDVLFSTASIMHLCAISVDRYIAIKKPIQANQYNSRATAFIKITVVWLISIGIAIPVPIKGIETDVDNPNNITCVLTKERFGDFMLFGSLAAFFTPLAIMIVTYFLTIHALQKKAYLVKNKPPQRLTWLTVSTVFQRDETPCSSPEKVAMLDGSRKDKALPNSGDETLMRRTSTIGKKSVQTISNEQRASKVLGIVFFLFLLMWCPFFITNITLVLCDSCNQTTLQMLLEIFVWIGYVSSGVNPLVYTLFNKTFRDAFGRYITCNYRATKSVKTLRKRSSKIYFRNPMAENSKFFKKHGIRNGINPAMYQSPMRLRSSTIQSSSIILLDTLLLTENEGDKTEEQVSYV

In general, EC50 refers to the concentration at which the effect is half-maximal. For orientation: melting point means the temperature, or range, at which the solid turns liquid. For `CCCOc1ccc(F)c2c1c(CCN(C)C)cn2CC` [Compound 25, 2-(1-Ethyl-7-fluoro-4-propoxy-1H-indol-3-yl)-N,N-dimethylethanamine], the melting point lay in the range of 49 to 50 °C. The Emax at 10 µM on human 5-HT2A receptor is less than 10%. In addition, at human 5-HT2B receptor, the Emax was 31% and the EC50 was 1450 nM. On 5-HT2C, the Emax came out at 75% and the EC50 was 168 ± 27.2 nM.

In turn, `COc1cc(F)cc2c1c(CCN(C)C)cn2C.Cl` [Compound 31, 2-(6-Fluoro-4-methoxy-1-methyl-1H-indol-3-yl)-N,N-dimethylethanamine hydrochloride] displayed a melting point of 260.6 to 261.3 °C. On human 5-HT2A receptor, the “5-HT2A response as percentage of the maximal 5-HT response @ 10,000” value (“5-HT2A response as percentage” for short) is on record as “(21 ± 7.9 @ 10,000) %” and the 50% effective concentration (EC50) was more than 10000 nM. For the same compound, on human 5-HT2B receptor, the Emax stood at 51% and the EC50 stood at 55 ± 7.77 nM. On 5-HT2C, the Emax came out at 87% and the EC50 came to 9.9 ± 3.27 nM.

As to `CCOc1cc(F)cc2c1c(CCN(C)C)cn2C.Cl` [Compound 32, 2-(4-Ethoxy-6-fluoro-1-methyl-1H-indol-3-yl)-N,N-dimethylethanamine hydrochloride], the melting point lay in the range of 202.2 to 203.3 °C. For the same compound, at human 5-HT2A receptor, the “5-HT2A response as percentage” value is “(26 ± 7.6 @ 10,000) %” and the EC50 was more than 10000 nM. In addition, at human 5-HT2B receptor, the Emax worked out at 66% and the EC50 was 166 ± 113 nM. Further, at 5-HT2C, the Emax came out at 85% and the EC50 was 31 ± 23.6 nM.

With `CCCOc1cc(F)cc2c1c(CCN(C)C)cn2C.Cl` [Compound 33, 2-(6-Fluoro-1-methyl-4-propoxy-1H-indol-3-yl)-N,N-dimethylethanamine hydrochloride], the melting point is 195.4 to 196.8 °C. The Emax at 10 µM at human 5-HT2A receptor is less than 10%. On human 5-HT2B receptor, the Emax was 78% and the EC50 came out at 182 ± 102 nM. Besides, on 5-HT2C, the Emax was 91% and the EC50 stood at 384 ± 193 nM.

`CCn1cc(CCN(C)C)c2c(OC)cc(F)cc21.Cl` [Compound 34, 2-(1-Ethyl-6-fluoro-4-methoxy-1H-indol-3-yl)-N,N-dimethylethanamine hydrochloride] showed a melting point of 233.4 to 234.9 °C. The Emax at 10 µM on human 5-HT2A receptor is less than 10%. In addition, at human 5-HT2B receptor, the Emax was determined as 21% and the EC50 is 397 ± 133 nM. In addition, at 5-HT2C, the Emax is 82% and the concentration giving a half-maximal response (EC50) stood at 24 ± 8.38 nM.

`CCOc1cc(F)cc2c1c(CCN(C)C)cn2CC` [Compound 35, 2-(4-Ethoxy-1-ethyl-6-fluoro-1H-indol-3-yl)-N,N-dimethylethanamine] yielded a melting point of 77.1 to 78.2 °C. Further, on human 5-HT2A receptor, the “5-HT2A response as percentage” value is given as “(14 ± 4.8 @ 10,000) %” and the 50% effective concentration (EC50) was more than 10000 nM. Also, on human 5-HT2B receptor, the Emax is 47% and the EC50 turned out to be 777 ± 383 nM. Moreover, on 5-HT2C, the Emax turned out to be 88% and the concentration for a half-maximal effect (EC50) was 246 ± 185 nM.

`CCCOc1cc(F)cc2c1c(CCN(C)C)cn2CC` [Compound 36, 2-(1-Ethyl-6-fluoro-4-propoxy-1H-indol-3-yl)-N,N-dimethylethanamine]: the melting point was in the range of 68.9 to 70.1 °C. At human 5-HT2A receptor, the Emax at 10 µM was less than 10%. Besides, on human 5-HT2B receptor, the EC50 turned out to be 543 ± 325 nM. For the same compound, on 5-HT2C, the Emax worked out at 87% and the EC50 stood at 659 ± 352 nM.

In turn, `CCCn1cc(CCN(C)C)c2c(OC)cc(F)cc21.Cl` [Compound 37, 2-(6-Fluoro-4-methoxy-1-propyl-1H-indol-3-yl)-N,N-dimethylethanamine hydrochloride] displayed a melting point of 119.8 to 121.3 °C. Moreover, the Emax at 10 µM at human 5-HT2A receptor was less than 10%. For the same compound, the Emax at 10 µM at human 5-HT2B receptor is less than 10%. Also, on 5-HT2C, the Emax amounted to 69% and the EC50 worked out at 354 ± 195 nM.

For the compound `CCCn1cc(CCN(C)C)c2c(OCC)cc(F)cc21.Cl` [Compound 38, 2-(4-Ethoxy-6-fluoro-1-propyl-1H-indol-3-yl)-N,N-dimethylethanamine hydrochloride], the melting point was 154 to 156 °C. Further, the Emax at 10 µM on human 5-HT2A receptor was less than 10%. Besides, at human 5-HT2B receptor, the Emax at 10 µM was less than 10%. On 5-HT2C, the Emax came out at 80% and the EC50 was found to be 1250 nM.

As for `CCCOc1cc(F)cc2c1c(CCN(C)C)cn2CCC.Cl` [Compound 39, 2-(6-Fluoro-4-propoxy-1-propyl-1H-indol-3-yl)-N,N-dimethylethanamine hydrochloride], the melting point was 170.3 to 171.4 °C. The Emax at 10 µM on human 5-HT2A receptor was less than 10%. Besides, on human 5-HT2B receptor, the Emax is 26% and the EC50 was determined as 3120 nM. At 5-HT2C, the Emax came out at 65% and the concentration giving a half-maximal response (EC50) worked out at 762 ± 469 nM.

The compound `CCn1cc(CCN(C)C)c2c(OC)c(F)ccc21.Cl` [Compound 41, 2-(1-Ethyl-5-fluoro-4-methoxy-1H-indol-3-yl)-N,N-dimethylethanamine hydrochloride] came in with a melting point of 149 to 150 °C. Moreover, at human 5-HT2A receptor, the Emax at 10 µM was less than 10%. Moreover, the Emax at 10 µM at human 5-HT2B receptor is less than 10%. Besides, on 5-HT2C, the Emax is 37% and the EC50 was 1.4 ± 0.19 nM.

In turn, `CCCn1cc(CCN(C)C)c2c(OC)c(F)ccc21.Cl` [Compound 42, 2-(5-Fluoro-4-methoxy-1-propyl-1H-indol-3-yl)-N,N-dimethylethanamine hydrochloride] showed a melting point of 111 to 113 °C. In addition, the Emax at 10 µM on human 5-HT2A receptor is less than 10%. At human 5-HT2B receptor, the Emax at 10 µM was less than 10%. At 5-HT2C, the Emax stood at 34% and the EC50 was determined as 741 nM.

As to `CN(C)CCc1cn(C)c2c(F)ccc(OCc3ccccc3)c12` [Compound 50, 4-Benzyloxy-3-(2-dimethylaminoethyl)-7-fluoro-1-methyl-1H-indole], the melting point fell in the range of 60 to 62 °C. In addition, the Emax at 10 µM at human 5-HT2A receptor was less than 10%. Also, the Emax at 10 µM on human 5-HT2B receptor was less than 10%. For the same compound, on 5-HT2C, the Emax was 81% and the EC50 was 282 nM.

`CN(C)CCc1cn(C)c2cc(F)cc(OCc3ccccc3)c12` [Compound 51, 4-Benzyloxy-3-(2-dimethylaminoethyl)-6-fluoro-1-methyl-1H-indole] showed a melting point of 79 to 80 °C. For the same compound, the Emax at 10 µM at human 5-HT2A receptor was less than 10%. Moreover, the Emax at 10 µM on human 5-HT2B receptor is less than 10%. Moreover, at 5-HT2C, the Emax came out at 99% and the EC50 is 233 nM.

Turning to `CN(C)CCc1cn(C)c2ccc(F)c(OCc3ccccc3)c12.Cl` [Compound 52, 4-Benzyloxy-3-(2-dimethylaminoethyl)-5-fluoro-1-methyl-1H-indole hydrochloride], the melting point is 139 to 141 °C. Further, the Emax at 10 µM at human 5-HT2A receptor was less than 10%. Besides, the Emax at 10 µM on human 5-HT2B receptor is less than 10%. At 5-HT2C, the Emax worked out at 79% and the EC50 amounted to 44 nM.

Consider `COc1c(F)cc(F)c2c1c(CCN(C)C)cn2C.Cl` [Compound 58, 2-(5,7-Difluoro-4-methoxy-1-methyl-1H-indol-3-yl)-N,N-dimethylethanamine hydrochloride], for which the melting point lay within 185 to 189 °C. In addition, on human 5-HT2A receptor, the Emax at 10 µM is less than 10%. Moreover, the Emax at 10 µM on human 5-HT2B receptor was less than 10%. In addition, at 5-HT2C, the Emax stood at 51% and the EC50 amounted to 2.4 ± 0.44 nM.

Compound `CCOc1c(F)ccc2c1c(CCN(C)C)cn2CC.Cl` [Compound 60, 2-(4-Ethoxy-1-ethyl-5-fluoro-1H-indol-3-yl)-N,N-dimethylethanamine hydrochloride] returned a melting point of 130 to 132 °C. Also, on human 5-HT2A receptor, the Emax at 10 µM is less than 10%. Also, on human 5-HT2B receptor, the Emax at 10 µM was less than 10%. On 5-HT2C, the Emax was found to be 69% and the half-maximal effective concentration (EC50) worked out at 4.2 ± 0.94 nM.

`CCCn1cc(CCN(C)C)c2c(OCC)c(F)ccc21.Cl` [Compound 61, 2-(4-Ethoxy-5-fluoro-1-propyl-1H-indol-3-yl)-N,N-dimethylethanamine hydrochloride] had a melting point of 141 to 143 °C. The Emax at 10 µM on human 5-HT2A receptor is less than 10%. Moreover, the Emax at 10 µM at human 5-HT2B receptor was less than 10%. Further, on 5-HT2C, the Emax turned out to be 38% and the EC50 was 13 ± 1.51 nM.

Regarding `CN(C)CCc1cn(C)c2c(F)ccc(F)c12.Cl` [Compound 65, 2-(4,7-Difluoro-1-methyl-1H-indol-3-yl)-N,N-dimethylethanamine hydrochloride], the melting point fell in the range of 209 to 210 °C. Further, at human 5-HT2A receptor, the Emax at 10 µM is less than 10%. The Emax at 10 µM on human 5-HT2B receptor was less than 10%. Also, on 5-HT2C, the Emax is 41% and the EC50 was determined as 16 ± 3.46 nM.

`COc1ccc(Br)c2c1c(CCN(C)C)cn2C.Cl` [Compound 73, 2-(7-Bromo-4-methoxy-1-methyl-1H-indol-3-yl)-N,N-dimethylethanamine hydrochloride] gave a melting point of 235 to 236 °C. Further, the Emax at 10 µM at human 5-HT2A receptor was less than 10%. Also, on human 5-HT2B receptor, the Emax at 10 µM is less than 10%. At 5-HT2C, the Emax came to 48% and the EC50 came to 274 ± 57.7 nM.
